According to patent US20180194762A1 (Pharmacyclics LLC, priority 2017, published 2018):
Read-outs that look alike come from different tables or passages of the source.

Assays:
Type in all cases: biochemical
Btk = biological target: T1, Btk (Homo sapiens, UniProt Q06187); assay: Btk in vitro inhibitory activity (one of Method A TR-FRET, Method B electrophoretic mobility shift, Method C radiometric filter binding)
T1 construct: purified from insect cells as a full-length construct containing a N-terminal 6X-His tag; His6 (N); made in house; host or cells: insect cells (Method C)
T1 sequence (Q06187 whole entry): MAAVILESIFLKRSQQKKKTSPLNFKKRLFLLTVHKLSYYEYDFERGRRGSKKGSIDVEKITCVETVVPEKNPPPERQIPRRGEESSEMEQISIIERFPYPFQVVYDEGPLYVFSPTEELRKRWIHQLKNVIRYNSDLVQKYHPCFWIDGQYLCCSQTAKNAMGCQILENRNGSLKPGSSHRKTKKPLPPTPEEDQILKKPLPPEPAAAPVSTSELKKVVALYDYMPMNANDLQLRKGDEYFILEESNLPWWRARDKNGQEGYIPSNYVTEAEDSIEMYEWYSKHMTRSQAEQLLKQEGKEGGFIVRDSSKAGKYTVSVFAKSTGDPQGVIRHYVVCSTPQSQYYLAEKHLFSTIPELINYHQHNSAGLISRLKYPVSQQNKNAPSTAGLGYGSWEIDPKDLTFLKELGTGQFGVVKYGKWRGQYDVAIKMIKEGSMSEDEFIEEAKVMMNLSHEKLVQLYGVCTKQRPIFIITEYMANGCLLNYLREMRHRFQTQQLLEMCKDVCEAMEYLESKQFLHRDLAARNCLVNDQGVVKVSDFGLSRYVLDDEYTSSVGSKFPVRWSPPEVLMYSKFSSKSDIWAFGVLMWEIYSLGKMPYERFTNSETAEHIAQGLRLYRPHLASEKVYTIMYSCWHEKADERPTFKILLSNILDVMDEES
Procedure: Example 62a: Btk In Vitro Inhibitory Activity (Method A)
Btk kinase activity is determined using a time-resolved fluorescence resonance energy transfer (TR-FRET) methodology. Measurements are performed in a reaction volume of 50 μL using 96-well assay plates. […] The reaction is quenched by the addition of 1.2 equivalents of EDTA (relative to divalent cation) in 25 μL of 1× Lance buffer (Perkin-Elmer). Streptavidin-APC (Perkin-Elmer) and Eu-labeled p-Tyr100 antibody (Perkin-Elmer) in 1× Lance buffer are added in a 25 μL volume to give final concentrations of 100 nM and 2.5 nM, respectively, and the mixture is allowed to incubate for one hour. The TR-FRET signal is measured on a multimode plate reader with an excitation wavelength (λEx) of 330 nm and detection wavelengths (λEm) of 615 and 665 nm. Activity is determined by the ratio of the fluorescence at 665 nm to that at 615 nm. For each compound, enzyme activity is measured at various concentrations of compound. Negative control reactions are performed in the absence of inhibitor in replicates of six, and two no-enzyme controls are used to determine baseline fluorescence levels. Inhibition constants, Ki(app), were obtained using the program BatchKi (Kuzmic et al. (2000), Anal. Biochem. 286:45-50). IC50s are obtained according to the equation:
IC50={Ki(app)/(1+[ATP]/Km^ATP)}+[E]total/2;
For all kinases, [ATP]=Km^ATP, [Btk]total=0.5 nM and [Lck]total=6 nM.
Example 62b: Btk In Vitro Inhibitory Activity (Method B)
Kinase activity is measured in vitro using electrophoretic mobility shift assay. The kinase reactions are assembled in a total volume of 25 μL in 384 well plates. The reactions comprise: BTK enzyme (1 nM, N-terminal His6-tagged, recombinant, full-length, human BTK purified from baculovirus Sf21 insect cell system, 293HEK, or other suitable source), inhibitor, ATP, fluorescently labeled peptide substrate (1 μM, FAM-GEEPLYWSFPAKKK-NH2) in a reaction buffer composed of 100 mM HEPES, pH7.5, 5 mM MgCl2 1 mM DTT, 0.1% bovine serum albumin, 0.01% Triton X-100, and 1% DMSO. The reaction is incubated and is quenched by the addition of termination buffer (100 mM HEPES, pH 7.5, 0.01% Triton X-100, 30 mM EDTA). The terminated reactions are analyzed using a 12 channel LabChip® 3000 microfluidic detection instrument (Caliper Life Sciences). The enzymatic phosphorylation of the peptide results in a change in net charge, enabling electrophoretic separation of product from substrate peptide. As substrate and product peptides are separated, two peaks of fluorescence are observed. Change in the relative fluorescence intensity of the substrate and product peaks is the parameter measured, reflecting enzyme activity. In the presence of an inhibitor, the ratio between product and substrate is altered: the signal of the product decreases, while the signal of the substrate increases.
Activity in each sample is determined as the product to sum ratio (PSR):P/(S+P), where P is the peak height of the product peptide and S is the peak height of the substrate peptide. For each compound, enzyme activity is measured at various concentrations (12 concentrations of compound spaced by 3× dilution intervals). Negative control samples (0%—inhibition in the absence of inhibitor) and positive control samples (100%—inhibition, in the presence of 20 mM EDTA) are assembled in replicates of four and are used to calculate %—inhibition values for each inhibitor at each concentration. Percent inhibition (Pinh) is determined using following equation:
Pinh=(PSR0%−PSRinh)/(PSR0%−PSR100%)*100, where PSRinh is the product sum ratio in the presence of inhibitor, PSR0% is the average product sum ration in the absence of inhibitor and PSR100% is the average product sum ratio in 100%—inhibition control samples.
The IC50 values of inhibitors are determined by 4 parameter sigmoidal dose-response model fitting of the inhibition curves (Pinh versus inhibitor concentration) using XLfit 4 software. […]

TEC = biological target: T2, TEC (Homo sapiens, UniProt P42680); assay: Inhibition of a panel of kinases (in vitro HotSpot kinase assay, 33P-ATP, 1 μM ATP); details: for IC50: HotSpot kinase assay, 1 μM ATP; for TEC/Btk: ratio of TEC IC50 to Btk IC50 (selectivity)
T2 sequence (P42680 1-631): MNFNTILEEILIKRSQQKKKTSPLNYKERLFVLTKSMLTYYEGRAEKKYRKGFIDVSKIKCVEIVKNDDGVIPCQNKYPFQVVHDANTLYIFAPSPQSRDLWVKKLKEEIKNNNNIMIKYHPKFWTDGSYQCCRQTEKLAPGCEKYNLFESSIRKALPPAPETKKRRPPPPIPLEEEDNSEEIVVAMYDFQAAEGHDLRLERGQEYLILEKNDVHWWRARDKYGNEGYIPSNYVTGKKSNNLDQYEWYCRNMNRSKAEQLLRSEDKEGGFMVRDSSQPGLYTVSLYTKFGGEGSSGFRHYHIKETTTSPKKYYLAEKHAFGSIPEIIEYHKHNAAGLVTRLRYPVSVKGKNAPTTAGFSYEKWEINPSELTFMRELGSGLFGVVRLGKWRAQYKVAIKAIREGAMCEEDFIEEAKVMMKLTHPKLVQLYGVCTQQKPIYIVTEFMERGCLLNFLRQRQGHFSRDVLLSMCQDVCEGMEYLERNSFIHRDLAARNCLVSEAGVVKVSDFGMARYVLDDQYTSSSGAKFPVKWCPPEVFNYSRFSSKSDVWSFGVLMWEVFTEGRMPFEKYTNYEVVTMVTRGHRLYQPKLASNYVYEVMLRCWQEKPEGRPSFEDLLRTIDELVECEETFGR
Procedure: (§1) Example 63: Inhibition of a Panel of Kinases The degree of inhibition of a panel of kinases is determined using the in vitro HotSpot kinase assay (purified enzymes, ^33P-ATP, an appropriate substrate and 1 μM ATP).

panel of kinases = biological target: T3, panel of kinases (Homo sapiens, UniProt P51813); assay: Inhibition of a panel of kinases (in vitro HotSpot kinase assay, 33P-ATP, 1 μM ATP), other kinases; details: BMX wild-type, read-out: BMX-WT IC50
T3 sequence (P51813 1-675): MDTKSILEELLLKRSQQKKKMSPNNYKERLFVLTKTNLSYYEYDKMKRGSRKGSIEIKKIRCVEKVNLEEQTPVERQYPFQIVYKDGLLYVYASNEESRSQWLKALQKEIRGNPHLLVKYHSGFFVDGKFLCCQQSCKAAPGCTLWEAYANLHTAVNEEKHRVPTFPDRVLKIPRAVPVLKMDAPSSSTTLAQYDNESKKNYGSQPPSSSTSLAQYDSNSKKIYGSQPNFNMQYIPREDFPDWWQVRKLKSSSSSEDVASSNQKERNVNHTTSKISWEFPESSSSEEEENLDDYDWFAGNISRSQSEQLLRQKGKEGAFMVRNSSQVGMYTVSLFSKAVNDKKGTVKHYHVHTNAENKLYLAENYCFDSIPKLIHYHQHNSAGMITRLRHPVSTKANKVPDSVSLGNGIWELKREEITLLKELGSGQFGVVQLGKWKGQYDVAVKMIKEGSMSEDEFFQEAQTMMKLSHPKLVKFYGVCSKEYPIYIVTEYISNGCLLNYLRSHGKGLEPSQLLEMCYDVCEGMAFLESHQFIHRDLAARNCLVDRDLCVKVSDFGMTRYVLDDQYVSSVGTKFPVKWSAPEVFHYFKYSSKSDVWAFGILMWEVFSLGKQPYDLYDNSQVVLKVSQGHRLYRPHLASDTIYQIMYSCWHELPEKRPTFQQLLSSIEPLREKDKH
Procedure: as §1

[1] = wild-type Btk, read-out: Btk-WT IC50

Structure (SMILES) | IC50 (Btk; [1]) | IC50 (TEC) | IC50 (Btk; method is one of A, B or C, not stated which, read-out: IC50 values against Btk) | TEC/Btk (TEC) | IC50 (panel of kinases)
C[C@H](NC(=O)c1noc(C(C)(C)C)n1)c1ccc(-c2ccnc3[nH]nc(N[C@@H]4CCN(C=O)C4)c23)cc1 [Example 96, 5-tert-butyl-N-[(1S)-1-[4-(3-{[(3R)-1-formylpyrrolidin-3-yl]amino}-1H-pyrazolo[3,4-b]pyridin-4-yl)phenyl]ethyl]-1,2,4-oxadiazole-3-carboxamide] | > 10 µM | 9.64 µM | – | – | –
C[C@@H](NC(=O)c1noc(C(C)(C)C)n1)c1ccc(-c2ccnc3[nH]nc(N[C@@H]4CCN(C=O)C4)c23)cc1 [Example 99, 5-tert-butyl-N-[(1R)-1-[4-(3-{[(3R)-1-formylpyrrolidin-3-yl]amino}-1H-pyrazolo[3,4-b]pyridin-4-yl)phenyl]ethyl]-1,2,4-oxadiazole-3-carboxamide] | 0.00446 µM | 1.43 µM | < 0.01 µM | 321 | –
C[C@@H]1[C@H](Nc2n[nH]c3nccc(-c4ccc(CNC(=O)c5noc(C(C)(C)C)n5)c(F)c4)c23)CCCN1C(=O)N1CCCC1 [Example 136, 5-tert-butyl-N-{[2-fluoro-4-(3-{[(2R,3R)-2-methyl-1-(pyrrolidine-1-carbonyl)piperidin-3-yl]amino}-1H-pyraozlo[3,4-b]pyridin-4-yl)phenyl]methyl}-1,2,4-oxadiazole-3-carboxamide] | 0.129 µM | 7.93 µM | – | 61 | –
C[C@@H]1[C@H](Nc2n[nH]c3nccc(-c4ccc(CNC(=O)c5noc(C(C)(C)C)n5)c(F)c4)c23)CCCN1C(=O)NCC(F)(F)F [Example 137, (2R,3R)-3-{[4-(4-{[(5-tert-butyl-1,2,4-oxadiazol-3-yl)formamido]methyl}-3-fluorophenyl)-1H-pyrazolo[3,4-b]pyridin-3-yl]amino}-2-methyl-N-(2,2,2-trifluoroethyl)piperidine-1-carboxamide] | > 10 µM | > 10 µM | – | – | –
C[C@@H]1[C@H](Nc2n[nH]c3nccc(-c4ccc(CNC(=O)c5noc(C(C)(C)C)n5)c(F)c4)c23)CCCN1C(=O)CC#N [Example 139, 5-tert-butyl-N-{[4-(3-{[(2R,3R)-1-(2-cyanoacetyl)-2-methylpiperidin-3-yl]amino}-1H-pyrazolo[3,4-b]pyridin-4-yl)-2-fluorophenyl]methyl}-1,2,4-oxadiazole-3-carboxamide] | 0.0464 µM | 5.76 µM | – | 124 | –
C[C@@H]1[C@H](Nc2n[nH]c3nccc(-c4ccc(CNC(=O)c5noc(C(C)(C)C)n5)c(F)c4)c23)CCCN1S(=O)(=O)C1CC1 [Example 141, 5-tert-butyl-N-{[4-(3-{[(2R,3R)-1-(cyclopropanesulfonyl)-2-methylpiperidin-3-yl]amino}-1H-pyrazolo[3,4-b]pyridin-4-yl)-2-fluorophenyl]methyl}-1,2,4-oxadiazole-3-carboxamide] | 0.03 µM | 3.05 µM | – | 102 | –
C[C@@H]1[C@H](Nc2n[nH]c3nccc(-c4ccc(CNC(=O)c5noc(C(C)(C)C)n5)c(F)c4)c23)CCCN1CC#N [Example 142, 5-tert-butyl-N-{[4-(3-{[(2R,3R)-1-(cyanomethyl)-2-methylpiperidin-3-yl]amino}-1H-pyrazolo[3,4-b]pyridin-4-yl)-2-fluorophenyl]methyl}-1,2,4-oxadiazole-3-carboxamide] | 0.0212 µM | 4.17 µM | – | 197 | –
Cc1nc(C(=O)NCc2ccc(-c3ccnc4[nH]nc(N[C@@H]5CC[C@H](C)N(C(=O)N(C)C)C5)c34)cc2F)oc1C [Example 194, (2S,5R)-5-{[4-(4-{[(4,5-dimethyl-1,3-oxazole-2-carbonyl)amino]methyl}-3-fluorophenyl)-1H-pyrazolo[3,4-b]pyridin-3-yl]amino}-N,N,2-trimethylpiperidine-1-carboxamide] | – | – | – | – | 4.86 µM
CC(C)(C)c1nc(C(=O)NC2(c3ccc(-c4ccnc5[nH]nc(NC6CCCN(C=O)C6)c45)cc3)CC2)no1 (centres unmarked) [Example 271, 5-tert-butyl-N-[1-(4-{3-[(1-formylpiperidin-3-yl)amino]-1H-pyrazolo[3,4-b]pyridin-4-yl}phenyl)cyclopropyl]-1,2,4-oxadiazole-3-carboxamide] | 0.111 µM | 5.87 µM | – | 053 | –
CC(C)(C)c1nc(C(=O)NCc2ccc(-c3ccnc4[nH]nc(O[C@@H]5CCN(C=O)C5)c34)cc2F)no1 [Example 273, 5-tert-butyl-N-[(2-fluoro-4-{3-[(1-formylpyrrolidin-3-yl)oxy]-1H-pyrazolo[3,4-b]pyridin-4-yl}phenyl)methyl]-1,2,4-oxadiazole-3-carboxamide] | 0.0038 µM | 1.09 µM | – | 287 | –
CC(=O)N[C@@H]1CCN(c2n[nH]c3nccc(-c4ccc(CNC(=O)c5ccc(C(C)(C)O)cc5F)c(F)c4)c23)C1 [Example 423, N-[(4-{3-[(3R)-3-acetamidopyrrolidin-1-yl]-1H-pyrazolo[3,4-b]pyridin-4-yl}-2-fluorophenyl)methyl]-2-fluoro-4-(2-hydroxypropan-2-yl)benzamide] | 0.0505 µM | 3.9 µM | – | – | –
